Reference: US7803966B2, “Cosmetic and pharmaceutical compositions comprising compounds that display retinoid like activities” (Johnson & Johnson Consumer France, S.A.S., priority 2007, dated 2010)

Columns and labels:
Format in all cases: cell-based
HB-EGF [1] = assay: HB-EGF gene expression in human squamous carcinoma cells (QRT-PCR); conditions: vs untreated control
Description: Compound G was tested on Human Squamous Carcinoma Cells for its ability to induce epidermal proliferation factor HB-EGF. For this assay, Human squamous carcinoma cells were seeded in 25 cm^2 flask and cultivated until 80% of cell confluence was reached. Test compounds were added to the culture medium and cells were incubated again 48 hours. At the end of the incubation cells were trypsinized and pelleted. […] was extracted and gene expression was measured with quantitative real time Polymerase Chain Reaction (QRT-PCR) using actin gene expression as internal standard. Variation of gene expression is expressed in percent versus the untreated control. Effect of Compound G on HB-EGF gene expression, assessed by real time QPCR was +187% and +370% vs. control at doses of 10^−6 and 10^−5 M respectively.

IL8 [2] = assay: IL8 gene expression in ex vivo human skin explant (QRT-PCR)
Description: (§1) Ex vivo skin explants were prepared from skin abdominal biopsy after plastic surgery. Skin explants were maintained in culture medium at 37° C. in a water saturated atmosphere for 5 days. […] After 48 hours, half of the explants were taken and epidermal mRNA was extracted and expression of HB-EGF and IL8 genes was measured by Quantitative real time PCR (QRT-PCR). Explants were also fixed and slices were prepared and mounted on glass slides to be examined. Cell proliferation was also assessed by staining the cells with an antibody directed to the Ki67 protein and then counting the number of positive cell per mm (Table 4).

IL8 [3] = assay: IL8 gene expression in human squamous carcinoma cells (QRT-PCR); conditions: for Effect on IL8 expression (48 h)vs control: vs untreated control
HB-EGF [4] = assay: HB-EGF gene expression in ex vivo human skin explant (QRT-PCR)
Description: as §1

[5] = system: Ex vivo human skin explant; assay: Cell proliferation (Ki67 staining) in ex vivo human skin explant; conditions: 10^−3 M topical, Control 90, Vehicle 45
Description: Ex vivo skin explants were prepared from skin abdominal biopsy after plastic surgery. Skin explants were maintained in culture medium at 37° C. in a water saturated atmosphere for 5 days. Compounds G was diluted in a mixture of propylene glycol (30%) and ethanol (70%) at 10^-3 M and topically applied on the explant surface. After 48 hours, half of the explants were taken and epidermal mRNA was extracted and expression of HB-EGF and IL8 genes was measured by Quantitative real time PCR (QRT-PCR). Explants were also fixed and slices were prepared and mounted on glass slides to be examined. Cell proliferation was also assessed by staining the cells with an antibody directed to the Ki67 protein and then counting the number of positive cell per mm (Table 4).

Structure (SMILES): O=C(O)COc1ccc(/N=N/c2c(O)ccc3cc(Br)ccc23)cc1 [Compound G]
- Effect on HB EGF expression vs control(48 h) (HB-EGF [1]; 10^−5 M): 370%
- Effect on HB EGF expression vs control(48 h) (HB-EGF [1]; 10^−5 M, listed as compound G): 370%
- Effect on HB EGF expression vs control(48 h) (HB-EGF [1]; 10^−6 M): 187%
- Effect on HB EGF expression vs control(48 h) (HB-EGF [1]; 10^−6 M, listed as compound G): 187%
- Effect on IL8 expression (48h)vs vehicle (IL8 [2]; 10^−3 M topical): 76%
- Effect on IL8 expression (48h)vs vehicle (IL8 [2]; 10^−4 M topical): 65%
- Effect on IL8 expression (48 h)vs control (IL8 [3]; 10^−5 M): 44%
- Effect on IL8 expression (48 h)vs control (IL8 [3]; 10^−6 M): 10%
- IL8 expression induction (in words) (IL8 [3]; "at this dose" (10^−6 and 10^−5 M), 48 h): did not significantly induce IL8 expression
- Effect on HB EGF expression (48 h) vs vehicle (HB-EGF [4]; 10^−3 M topical): 288%
- Effect on HB EGF expression (48 h) vs vehicle (HB-EGF [4]; 10^−4 M topical): 159%
- Cell proliferation (Ki67 + cells) [5]: 150 positive cell per mm
